# From article PMC5218480 (PLoS ONE, 2017)
# Test system: MV-4-11 cells
# Experiment: Gene expression microarray analysis (Affymetrix PrimeView) and GSEA
# Assay type: cell-based, human
# Parameters: RFU PODN (11730768_x_at) / Fold change /veh PODN (11730768_x_at) / RFU LINC00158 (11744669_a_at) / Fold change /veh LINC00158 (11744669_a_at) / RFU DUSP10 (11751237_a_at) / Fold change /veh DUSP10 (11751237_a_at) / RFU ID3 (11757404_x_at) / Fold change /veh ID3 (11757404_x_at) / RFU PLEKHG5 (11737974_s_at) / Fold change /veh PLEKHG5 (11737974_s_at) / RFU LRRC4B (11730491_at) / Fold change /veh LRRC4B (11730491_at) / RFU GIMAP4 (11747438_a_at) / Fold change /veh GIMAP4 (11747438_a_at) / RFU KRT8 (11758183_x_at) / Fold change /veh KRT8 (11758183_x_at) / RFU CNN1 (11734310_a_at) / Fold change /veh CNN1 (11734310_a_at) / RFU VPS37D (11726825_at) / Fold change /veh VPS37D (11726825_at) / RFU C10orf10 (11716522_x_at) / Fold change /veh C10orf10 (11716522_x_at) / RFU KIR2DL2 /// KIR2DL4 /// KIR2DL5A /// KIR2DL5B /// KIR2DS1 /// KIR2DS2 /// KIR2DS3 /// KIR2DS4 /// KIR3DL3 /// KIR3DL3 /// KIR3DS1 (11738374_at) / Fold change /veh KIR2DL2 /// KIR2DL4 /// KIR2DL5A /// KIR2DL5B /// KIR2DS1 /// KIR2DS2 /// KIR2DS3 /// KIR2DS4 /// KIR3DL3 /// KIR3DL3 /// KIR3DS1 (11738374_at) / RFU C1QL1 (11718748_at) / Fold change /veh C1QL1 (11718748_at) / RFU TMPRSS4 (11747572_a_at) / Fold change /veh TMPRSS4 (11747572_a_at) / RFU HAMP (11756126_x_at) / Fold change /veh HAMP (11756126_x_at) / RFU RNFT2 (11725882_a_at) / Fold change /veh RNFT2 (11725882_a_at) / RFU NR4A2 (11747474_a_at) / Fold change /veh NR4A2 (11747474_a_at) / RFU ABCC12 (11746883_a_at) / Fold change /veh ABCC12 (11746883_a_at) / RFU TMEM136 (11760407_x_at) / Fold change /veh TMEM136 (11760407_x_at) / RFU CLDN22 /// WWC2 (11732394_at) / Fold change /veh CLDN22 /// WWC2 (11732394_at) / RFU HLA-DPB1 (11760878_x_at) / Fold change /veh HLA-DPB1 (11760878_x_at) / RFU SPINT1 (11716480_a_at) / Fold change /veh SPINT1 (11716480_a_at) / RFU GAP43 (11754022_s_at) / Fold change /veh GAP43 (11754022_s_at) / RFU A4GNT (11735810_at) / Fold change /veh A4GNT (11735810_at) / RFU PRB3 (11715151_x_at) / Fold change /veh PRB3 (11715151_x_at) / RFU TUBB4B (11761932_at) / Fold change /veh TUBB4B (11761932_at) / RFU CAPN14 (11732068_a_at) / Fold change /veh CAPN14 (11732068_a_at) / RFU TMCC2 (11721928_a_at) / Fold change /veh TMCC2 (11721928_a_at) / RFU IRGQ (11745062_a_at) / Fold change /veh IRGQ (11745062_a_at) / RFU FAM174B (11720279_a_at) / Fold change /veh FAM174B (11720279_a_at) / RFU TMPRSS4 (11748680_a_at) / Fold change /veh TMPRSS4 (11748680_a_at) / RFU FAM212B (11763350_a_at) / Fold change /veh FAM212B (11763350_a_at) / RFU PLEKHG5 (11743358_a_at) / Fold change /veh PLEKHG5 (11743358_a_at) / RFU ZSCAN30 (11745921_a_at) / Fold change /veh ZSCAN30 (11745921_a_at) / RFU CMKLR1 (11741424_a_at) / Fold change /veh CMKLR1 (11741424_a_at) / RFU LOC101060620 /// MAPK8IP1 (11723275_at) / Fold change /veh LOC101060620 /// MAPK8IP1 (11723275_at) / RFU SPTSSB (11747773_x_at) / Fold change /veh SPTSSB (11747773_x_at) / RFU PRSS12 (11739890_at) / Fold change /veh PRSS12 (11739890_at) / RFU BIN1 (11741810_x_at) / Fold change /veh BIN1 (11741810_x_at) / RFU WNT11 (11732464_a_at) / Fold change /veh WNT11 (11732464_a_at) / RFU C10orf10 (11716521_a_at) / Fold change /veh C10orf10 (11716521_a_at) / RFU C5orf56 (11738089_at) / Fold change /veh C5orf56 (11738089_at) / RFU CYB561 (11721691_x_at) / Fold change /veh CYB561 (11721691_x_at) / RFU ANKRD19P (11752326_a_at) / Fold change /veh ANKRD19P (11752326_a_at) / RFU OR2T12 /// OR2T33 /// OR2T8 (11738714_s_at) / Fold change /veh OR2T12 /// OR2T33 /// OR2T8 (11738714_s_at) / RFU VCAN (11748164_a_at) / Fold change /veh VCAN (11748164_a_at) / RFU JSRP1 (11732532_at) / Fold change /veh JSRP1 (11732532_at) / RFU KRTAP10-11 (11738290_x_at) / Fold change /veh KRTAP10-11 (11738290_x_at) / RFU MYO3A (11730013_a_at) / Fold change /veh MYO3A (11730013_a_at) / RFU EBF3 (11725865_a_at) / Fold change /veh EBF3 (11725865_a_at) / RFU CAMK2N1 (11719241_x_at) / Fold change /veh CAMK2N1 (11719241_x_at) / RFU C5orf56 (11738088_a_at) / Fold change /veh C5orf56 (11738088_a_at) / RFU OLFML3 (11715873_a_at) / Fold change /veh OLFML3 (11715873_a_at) / RFU LOC100653217 /// NTM (11731650_a_at) / Fold change /veh LOC100653217 /// NTM (11731650_a_at) / RFU MAPK11 (11762145_a_at) / Fold change /veh MAPK11 (11762145_a_at) / RFU FIZ1 (11724087_x_at) / Fold change /veh FIZ1 (11724087_x_at) / RFU OASL (11726364_x_at) / Fold change /veh OASL (11726364_x_at) / RFU SOX15 (11748057_x_at) / Fold change /veh SOX15 (11748057_x_at) / RFU CD79A (11719716_a_at) / Fold change /veh CD79A (11719716_a_at) / RFU HIST1H1D (11736915_at) / Fold change /veh HIST1H1D (11736915_at) / RFU CASKIN2 (11723855_a_at) / Fold change /veh CASKIN2 (11723855_a_at) / RFU LOC730098 (11760151_x_at) / Fold change /veh LOC730098 (11760151_x_at) / RFU OR4N2 (11742367_at) / Fold change /veh OR4N2 (11742367_at) / RFU PRRT2 (11749266_a_at) / Fold change /veh PRRT2 (11749266_a_at) / RFU SNX32 (11753110_a_at) / Fold change /veh SNX32 (11753110_a_at) / RFU CDHR5 (11726645_a_at) / Fold change /veh CDHR5 (11726645_a_at) / RFU RCAN1 (11760418_a_at) / Fold change /veh RCAN1 (11760418_a_at) / RFU FAM167A (11723789_a_at) / Fold change /veh FAM167A (11723789_a_at) / RFU FAM26E (11764081_at) / Fold change /veh FAM26E (11764081_at) / RFU ISYNA1 (11749810_s_at) / Fold change /veh ISYNA1 (11749810_s_at) / RFU ACY1 (11761880_at) / Fold change /veh ACY1 (11761880_at) / RFU 11764098_at / Fold change /veh 11764098_at / RFU SAMD14 (11745864_x_at) / Fold change /veh SAMD14 (11745864_x_at) / RFU NPB (11741838_a_at) / Fold change /veh NPB (11741838_a_at) / RFU TMPRSS6 (11731388_a_at) / Fold change /veh TMPRSS6 (11731388_a_at) / RFU KRTAP10-2 (11738614_at) / Fold change /veh KRTAP10-2 (11738614_at) / RFU ARHGAP8 /// PRR5-ARHGAP8 (11727945_x_at) / Fold change /veh ARHGAP8 /// PRR5-ARHGAP8 (11727945_x_at) / RFU KRTAP5-7 /// NADSYN1 (11734609_at) / Fold change /veh KRTAP5-7 /// NADSYN1 (11734609_at) / RFU RASL12 (11751679_a_at) / Fold change /veh RASL12 (11751679_a_at) / RFU CDKN2B (11736163_a_at) / Fold change /veh CDKN2B (11736163_a_at) / RFU PRF1 (11729649_at) / Fold change /veh PRF1 (11729649_at) / RFU, ZNF638 /// ZNF638-IT1 / Fold change vs veh, ZNF638 /// ZNF638-IT1 / RFU, PANK3 / Fold change vs veh, PANK3 / RFU, SH3YL1 / Fold change vs veh, SH3YL1 / RFU, ZEB2 / Fold change vs veh, ZEB2 / RFU, NRIP1 / Fold change vs veh, NRIP1 / RFU, PTTG1IP / Fold change vs veh, PTTG1IP / RFU, CAPN2 / Fold change vs veh, CAPN2 / RFU, MED14 / Fold change vs veh, MED14 / RFU, SNORA58 / Fold change vs veh, SNORA58 / RFU, C1orf63 / Fold change vs veh, C1orf63 / RFU, LRRFIP1 / Fold change vs veh, LRRFIP1 / RFU, NDUFAF7 / Fold change vs veh, NDUFAF7 / RFU, SLC12A2 / Fold change vs veh, SLC12A2 / RFU, IBTK / Fold change vs veh, IBTK / RFU, ESF1 / Fold change vs veh, ESF1 / Fold change vs veh, TMEM50B / RFU, TAOK1 / Fold change vs veh, TAOK1 / RFU, ACBD3 / Fold change vs veh, ACBD3 / RFU, TMA16 / Fold change vs veh, TMA16 / RFU, RWDD3 / Fold change vs veh, RWDD3 / RFU, BCAT1 / Fold change vs veh, BCAT1 / RFU, EDEM3 / Fold change vs veh, EDEM3 / RFU, TMEM33 / Fold change vs veh, TMEM33 / RFU, WDR75 / Fold change vs veh, WDR75 / RFU, AHCTF1 / Fold change vs veh, AHCTF1 / RFU, TFRC / Fold change vs veh, TFRC / RFU, ZDHHC17 / Fold change vs veh, ZDHHC17 / RFU, NOM1 / Fold change vs veh, NOM1 / RFU, ARL8B / Fold change vs veh, ARL8B / RFU, ZBTB11 / Fold change vs veh, ZBTB11 / RFU, TAMM41 / Fold change vs veh, TAMM41 / RFU, KIAA1704 /// LOC100996395 / Fold change vs veh, KIAA1704 /// LOC100996395 / RFU, ING1 / Fold change vs veh, ING1 / RFU, TRMT61B / Fold change vs veh, TRMT61B / RFU, FUBP3 / Fold change vs veh, FUBP3 / RFU, TP53 / Fold change vs veh, TP53 / RFU, TNKS2 / Fold change vs veh, TNKS2 / RFU, ZFP14 / Fold change vs veh, ZFP14 / RFU, ACTR2 / Fold change vs veh, ACTR2 / RFU, PPP3R1 / Fold change vs veh, PPP3R1 / RFU, PIK3R1 / Fold change vs veh, PIK3R1 / RFU, HNRNPA1 / Fold change vs veh, HNRNPA1 / RFU, RNF170 / Fold change vs veh, RNF170 / RFU, ZNF28 / Fold change vs veh, ZNF28 / RFU, RNGTT / Fold change vs veh, RNGTT / RFU, OGT / Fold change vs veh, OGT / RFU, BRD1 / Fold change vs veh, BRD1 / RFU, MARS / Fold change vs veh, MARS / RFU, ZNF655 / Fold change vs veh, ZNF655 / RFU, FAHD1 / Fold change vs veh, FAHD1 / RFU, BDP1 / Fold change vs veh, BDP1 / RFU, LRRCC1 / Fold change vs veh, LRRCC1 / RFU, ARID1A / Fold change vs veh, ARID1A / RFU, ZNF146 / Fold change vs veh, ZNF146 / RFU, ZNF330 / Fold change vs veh, ZNF330 / RFU, GPN3 / Fold change vs veh, GPN3 / RFU, C9orf123 / Fold change vs veh, C9orf123 / RFU, N4BP2L2 / Fold change vs veh, N4BP2L2 / RFU, ARFIP1 / Fold change vs veh, ARFIP1 / RFU, FAM179B / Fold change vs veh, FAM179B / RFU, BCL10 / Fold change vs veh, BCL10 / RFU, UHRF1BP1L / Fold change vs veh, UHRF1BP1L / RFU, BET1 / Fold change vs veh, BET1 / RFU, CNOT2 / Fold change vs veh, CNOT2 / RFU, ZNF268 / Fold change vs veh, ZNF268 / Fold change vs veh, ZNF507 / RFU, DGCR2 / Fold change vs veh, DGCR2 / RFU, WDSUB1 / Fold change vs veh, WDSUB1 / Fold change vs veh, HSP90B1 /// MIR3652 / RFU, ADSS / Fold change vs veh, ADSS / RFU, GK / Fold change vs veh, GK / RFU, ZNF148 / Fold change vs veh, ZNF148 / RFU, TAF9 / Fold change vs veh, TAF9 / RFU, SLC1A5 / Fold change vs veh, SLC1A5 / RFU, SLMO2 / Fold change vs veh, SLMO2 / RFU, ABCC4 / Fold change vs veh, ABCC4 / RFU, LOC101060439 /// RAP1B / Fold change vs veh, LOC101060439 /// RAP1B / RFU, RFX7 / Fold change vs veh, RFX7 / RFU, GTPBP10 / Fold change vs veh, GTPBP10 / RFU, CNEP1R1 / Fold change vs veh, CNEP1R1 / RFU, BIVM-ERCC5 /// ERCC5 / Fold change vs veh, BIVM-ERCC5 /// ERCC5 / RFU, ILF3 / Fold change vs veh, ILF3 / RFU 11762660_at / Fold change /veh 11762660_at / RFU VCAN (11757783_s_at) / Fold change /veh VCAN (11757783_s_at) / RFU DDX43 (11728927_at) / Fold change /veh DDX43 (11728927_at) / RFU KRT8 (11758188_x_at) / Fold change /veh KRT8 (11758188_x_at) / RFU NKD1 (11759106_at) / Fold change /veh NKD1 (11759106_at) / RFU SRD5A1 (11742802_a_at) / Fold change /veh SRD5A1 (11742802_a_at) / RFU TPSAB1 /// TPSB2 (11721975_s_at) / Fold change /veh TPSAB1 /// TPSB2 (11721975_s_at) / RFU GSTM3 (11746129_a_at) / Fold change /veh GSTM3 (11746129_a_at) / RFU IL23R (11737362_x_at) / Fold change /veh IL23R (11737362_x_at) / RFU TMEM51 (11727254_a_at) / Fold change /veh TMEM51 (11727254_a_at) / RFU PIWIL2 (11732686_x_at) / Fold change /veh PIWIL2 (11732686_x_at) / RFU ORM1 (11744905_x_at) / Fold change /veh ORM1 (11744905_x_at) / RFU CCDC152 (11743942_at) / Fold change /veh CCDC152 (11743942_at) / RFU ECM1 (11717891_a_at) / Fold change /veh ECM1 (11717891_a_at) / RFU IL23R (11748794_a_at) / Fold change /veh IL23R (11748794_a_at) / RFU TNFAIP8L3 (11732012_x_at) / Fold change /veh TNFAIP8L3 (11732012_x_at) / RFU MBOAT4 (11741988_at) / Fold change /veh MBOAT4 (11741988_at) / RFU 11764193_at / Fold change /veh 11764193_at / RFU TMEM53 (11763286_at) / Fold change /veh TMEM53 (11763286_at) / RFU MAGEB2 (11727129_at) / Fold change /veh MAGEB2 (11727129_at) / RFU TMEM200A (11744735_a_at) / Fold change /veh TMEM200A (11744735_a_at) / RFU CCDC152 (11751479_a_at) / Fold change /veh CCDC152 (11751479_a_at) / RFU FAM211A (11726209_a_at) / Fold change /veh FAM211A (11726209_a_at) / RFU RGS16 (11746705_a_at) / Fold change /veh RGS16 (11746705_a_at) / RFU VCAN (11755009_s_at) / Fold change /veh VCAN (11755009_s_at) / RFU RHOB (11743442_s_at) / Fold change /veh RHOB (11743442_s_at) / RFU RGS16 (11720943_a_at) / Fold change /veh RGS16 (11720943_a_at) / RFU RGS16 (11720944_at) / Fold change /veh RGS16 (11720944_at) / RFU, VPS4B / Fold change vs veh, VPS4B / RFU, CREB1 / Fold change vs veh, CREB1 / RFU, DNAJC13 / Fold change vs veh, DNAJC13 / RFU, GNAQ / Fold change vs veh, GNAQ / RFU, CDK5R1 / Fold change vs veh, CDK5R1 / RFU, ZRANB3 / Fold change vs veh, ZRANB3 / RFU, CUL4A / Fold change vs veh, CUL4A / RFU, CCNY / Fold change vs veh, CCNY / RFU, UFL1 / Fold change vs veh, UFL1 / RFU, COG3 / Fold change vs veh, COG3 / RFU, DIAPH2 / Fold change vs veh, DIAPH2 / RFU, SKA2 / Fold change vs veh, SKA2 / RFU, AFF3 / Fold change vs veh, AFF3 / RFU, LMF1 / Fold change vs veh, LMF1 / RFU, IPO11 / Fold change vs veh, IPO11 / RFU, DFFB / Fold change vs veh, DFFB / RFU, FOXP1 / Fold change vs veh, FOXP1 / RFU, CARD8 / Fold change vs veh, CARD8 / RFU, STRN3 / Fold change vs veh, STRN3 / RFU, ADK / Fold change vs veh, ADK / RFU, RASSF2 / Fold change vs veh, RASSF2 / RFU, WIPF1 / Fold change vs veh, WIPF1 / RFU, LARP1B / Fold change vs veh, LARP1B / RFU, RASA1 / Fold change vs veh, RASA1 / RFU, RB1 / Fold change vs veh, RB1 / RFU, PPFIA1 / Fold change vs veh, PPFIA1 / RFU, MAT2A / Fold change vs veh, MAT2A / RFU, CCT5 / Fold change vs veh, CCT5 / RFU, WDR92 / Fold change vs veh, WDR92 / RFU, CUX1 / Fold change vs veh, CUX1 / RFU, TTC7A / Fold change vs veh, TTC7A / RFU, TMEM135 / Fold change vs veh, TMEM135 / RFU, DEPTOR / Fold change vs veh, DEPTOR / RFU, CPM / Fold change vs veh, CPM / RFU, DNAJB6 / Fold change vs veh, DNAJB6 / RFU, CACNA2D3 / Fold change vs veh, CACNA2D3 / RFU, DTX4 / Fold change vs veh, DTX4 / RFU, TFCP2 / Fold change vs veh, TFCP2 / RFU, GMCL1 /// GMCL1P1 / Fold change vs veh, GMCL1 /// GMCL1P1 / RFU, AEBP2 / Fold change vs veh, AEBP2 / RFU, SNHG1 /// SNORD22 /// SNORD25 /// SNORD26 /// SNORD27 /// SNORD28 /// SNORD29 /// SNORD31 / Fold change vs veh, SNHG1 /// SNORD22 /// SNORD25 /// SNORD26 /// SNORD27 /// SNORD28 /// SNORD29 /// SNORD31 / Fold change (Aza/veh), C12orf56 (ProbeSet 11735607_a_at) / Fold change (ACY-1035/veh), C12orf56 (ProbeSet 11735607_a_at) / Fold change (Aza/veh), FGFR1OP (ProbeSet 11751329_s_at) / Fold change (ACY-1035/veh), FGFR1OP (ProbeSet 11751329_s_at) / Fold change (Aza/veh), VPS36 (ProbeSet 11739960_a_at) / Fold change (ACY-1035/veh), VPS36 (ProbeSet 11739960_a_at) / RFU SYPL1 (11715823_x_at) / Fold change /veh SYPL1 (11715823_x_at) / RFU IGFBP7 (11715501_s_at) / Fold change /veh IGFBP7 (11715501_s_at) / RFU REEP3 (11722064_at) / Fold change /veh REEP3 (11722064_at) / RFU IGLL1 (11728026_x_at) / Fold change /veh IGLL1 (11728026_x_at): dose or concentration left out as unconfirmed
# Conditions: MV-4-11 cells, 48 hours
compound,measurement,value
Nc1ccc(-c2cccs2)cc1NC(=O)c1ccc2c(c1)cc(C1CC1)n2CCN1CCOCC1 [ACY-1035],RFU NPB (11741838_a_at),77.64 RFU
